How the values were obtained:
Type in all cases: biochemical
NUAK2 (h) = biological target: T1, NUAK2 (h) (Homo sapiens, UniProt Q9H093); experiment: NUAK2 enzymatic assay (radiometric, Eurofins); details: full-length recombinant enzyme
T1 construct: This assay was done radiometrically using full-length, recombinant enzyme; purchased Eurofins
T1 sequence (Q9H093 1-628): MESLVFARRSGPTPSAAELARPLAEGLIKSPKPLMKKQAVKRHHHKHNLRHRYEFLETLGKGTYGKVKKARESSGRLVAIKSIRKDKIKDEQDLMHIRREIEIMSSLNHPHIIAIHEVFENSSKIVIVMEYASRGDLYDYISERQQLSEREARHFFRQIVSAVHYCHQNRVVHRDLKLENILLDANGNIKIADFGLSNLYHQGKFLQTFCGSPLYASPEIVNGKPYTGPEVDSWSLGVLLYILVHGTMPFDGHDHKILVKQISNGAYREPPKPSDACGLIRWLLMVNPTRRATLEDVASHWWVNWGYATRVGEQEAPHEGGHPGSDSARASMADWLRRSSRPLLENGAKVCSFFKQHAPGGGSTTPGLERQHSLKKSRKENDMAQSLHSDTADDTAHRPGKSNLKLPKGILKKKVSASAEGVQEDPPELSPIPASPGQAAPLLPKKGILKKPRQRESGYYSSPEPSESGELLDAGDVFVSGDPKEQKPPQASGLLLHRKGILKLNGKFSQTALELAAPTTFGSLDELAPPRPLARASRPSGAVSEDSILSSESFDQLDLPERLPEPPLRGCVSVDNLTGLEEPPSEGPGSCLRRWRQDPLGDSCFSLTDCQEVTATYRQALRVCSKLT
Protocol: (§1) To identify small molecule NUAK inhibitors, a biochemical NUAK2 enzymatic assay were outsourced to Eurofins. This assay was done radiometrically using full-length, recombinant enzyme. NUAK2 (h) was incubated with 8 mM MOPS pH 7.0, 0.2 mM EDTA, 300 μM […], 10 mM magnesium acetate and […] (specific activity and concentration as required). The reaction was initiated by the addition of the Mg/ATP mix. After incubation for 40 minutes at room temperature, the reaction was stopped by the addition of phosphoric acid to a concentration of 0.5%. 10 μL of the reaction was then spotted onto a P30 filtermat and washed four times for 4 minutes in 0.425% phosphoric acid and once in methanol prior to drying and scintillation counting. Compounds were routinely counter-screened against Aurora A and NUAK1. The results are shown in Table 1 where IC50's are reported in the following ranges: A: 0.1-10 nM; B: 11-100 nM; C: 101-1000 nM; D: >1000 nM for the compounds of Formula (I)

NUAK1 = biological target: T2, NUAK1 (Homo sapiens, UniProt O60285); experiment: Counter-screen against NUAK1
T2 sequence (O60285 1-661): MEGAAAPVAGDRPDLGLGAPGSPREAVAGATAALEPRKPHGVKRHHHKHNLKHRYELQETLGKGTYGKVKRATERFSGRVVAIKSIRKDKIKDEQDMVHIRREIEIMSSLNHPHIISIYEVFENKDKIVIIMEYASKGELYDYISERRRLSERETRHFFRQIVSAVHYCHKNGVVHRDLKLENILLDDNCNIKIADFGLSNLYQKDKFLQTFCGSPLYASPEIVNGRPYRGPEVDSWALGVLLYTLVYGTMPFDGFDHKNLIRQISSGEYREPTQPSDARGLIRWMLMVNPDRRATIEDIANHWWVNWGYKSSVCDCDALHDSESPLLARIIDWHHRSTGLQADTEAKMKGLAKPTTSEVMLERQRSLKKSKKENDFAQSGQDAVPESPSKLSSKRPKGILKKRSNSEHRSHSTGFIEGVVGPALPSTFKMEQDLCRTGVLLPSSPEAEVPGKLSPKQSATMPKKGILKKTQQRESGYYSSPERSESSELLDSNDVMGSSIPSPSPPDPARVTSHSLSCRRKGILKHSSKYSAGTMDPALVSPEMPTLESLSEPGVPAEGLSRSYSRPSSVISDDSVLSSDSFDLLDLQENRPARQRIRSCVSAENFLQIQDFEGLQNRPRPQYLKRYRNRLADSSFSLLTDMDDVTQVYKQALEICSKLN
Protocol: as §1

Aurora A = biological target: T3, Aurora A (Homo sapiens, UniProt O14965); experiment: Counter-screen against Aurora A; details: read-out: AUR-A (IC50)
T3 sequence (O14965 1-403): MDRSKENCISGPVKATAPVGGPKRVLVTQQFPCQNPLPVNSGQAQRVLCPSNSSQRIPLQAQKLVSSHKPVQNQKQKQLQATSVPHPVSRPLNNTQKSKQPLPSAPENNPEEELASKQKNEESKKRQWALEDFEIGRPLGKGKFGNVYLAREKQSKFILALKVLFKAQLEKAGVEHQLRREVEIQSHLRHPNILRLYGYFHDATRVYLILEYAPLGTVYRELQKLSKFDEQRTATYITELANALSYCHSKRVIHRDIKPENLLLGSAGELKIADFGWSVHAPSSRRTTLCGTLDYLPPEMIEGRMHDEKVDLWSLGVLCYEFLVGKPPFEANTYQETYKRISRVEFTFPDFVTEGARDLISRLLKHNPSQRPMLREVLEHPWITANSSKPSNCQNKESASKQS
Protocol: as §1

| Structure (SMILES) | IC50 (NUAK2 (h)) [µM] | IC50 (NUAK1) [µM] | IC50 (Aurora A) [µM] |
| --- | --- | --- | --- |
| CC(C)Oc1cc(N2CCN(C)CC2)ccc1Nc1ncc(Cl)c(Nc2cccc3c2C(=O)NC3)n1 [Compound I-11, 7-((5-chloro-2-((2-isopropoxy-4-(4-methylpiperazin-1-yl)phenyl)amino)pyrimidin-4-yl)amino)isoindolin-1-one] | 0.101 to 1 | > 1 | > 1 |
| COc1cc2c(cc1Nc1ncc(Cl)c(Nc3cccc4c3C(=O)NC4)n1)CCN(C)C2 [Compound I-12, 7-((5-chloro-2-((7-methoxy-2-methyl-1,2,3,4-tetrahydroisoquinolin-6-yl)amino)pyrimidin-4-yl)amino)isoindolin-1-one] | 0.0001 to 0.01 | 0.011 to 0.1 | > 1 |
| COc1nc(N2CCC(N3CCN(C)CC3)CC2)ccc1Nc1ncc(Cl)c(Nc2cccc3c2C(=O)NC3)n1 [Compound I-13, 7-((5-chloro-2-((2-methoxy-6-(4-(4-methylpiperazin-1-yl)piperidin-1-yl)pyridin-3-yl)amino)pyrimidin-4-yl)amino)isoindolin-1-one] | 0.0001 to 0.01 | 0.011 to 0.1 | 0.011 to 0.1 |
| Cc1c(N2CCN(C)CC2)ccc(Nc2ncc(Cl)c(Nc3cccc4c3C(=O)NC4)n2)c1Cl [Compound I-15, 7-((5-chloro-2-((2-chloro-3-methyl-4-(4-methylpiperazin-1-yl)phenyl)amino)pyrimidin-4-yl)amino)isoindolin-1-one] | 0.011 to 0.1 | 0.011 to 0.1 | 0.101 to 1 |
| COc1cc2c(cc1Nc1ncc(Cl)c(Nc3cccc4c3C(=O)NC4)n1)CCN(CCC(F)(F)F)C2 [Compound I-19, 7-((5-chloro-2-((7-methoxy-2-(3,3,3-trifluoropropyl)-1,2,3,4-tetrahydroisoquinolin-6-yl)amino)pyrimidin-4-yl)amino)isoindolin-1-one] | 0.011 to 0.1 | 0.101 to 1 | > 1 |
| COc1cc2c(cc1Nc1ncc(C(F)(F)F)c(Nc3cccc4c3C(=O)NC4)n1)CCN(C)C2 [Compound I-22, 7-((2-((7-methoxy-2-methyl-1,2,3,4-tetrahydroisoquinolin-6-yl)amino)-5-(trifluoromethyl)pyrimidin-4-yl)amino)isoindolin-1-one] | 0.0001 to 0.01 | 0.011 to 0.1 | 0.101 to 1 |
| O=C1NCc2cccc(Nc3nc(Nc4ccc(N5CCNCC5)cc4OC(F)F)ncc3Cl)c21 [Compound I-24, 7-((5-chloro-2-((2-(difluoromethoxy)-4-(piperazin-1-yl)phenyl)amino)pyrimidin-4-yl)amino)isoindolin-1-one] | 0.0001 to 0.01 | 0.011 to 0.1 | > 1 |
| COc1cc2c(cc1Nc1ncc(Cl)c(Nc3cccc4c3C(=O)NC4)n1)CCNCC2 [Compound I-26, 7-((5-chloro-2-((8-methoxy-2,3,4,5-tetrahydro-1H-benzo[d]azepin-7-yl)amino)pyrimidin-4-yl)amino)isoindolin-1-one] | 0.011 to 0.1 | 0.011 to 0.1 | > 1 |
| CN1C[C@@H]2CN(c3ccc(Nc4ncc(Cl)c(Nc5cccc6c5C(=O)NC6)n4)c(OC(F)F)c3)C[C@@H]2C1 [Compound I-28, 7-((5-chloro-2-((2-(difluoromethoxy)-4-((3aR,6aS)-5-methylhexahydropyrrolo[3,4-c]pyrrol-2(1H)-yl)phenyl)amino)pyrimidin-4-yl)amino)isoindolin-1-one] | 0.0001 to 0.01 | 0.011 to 0.1 | > 1 |

Other lines, results leading:

| IC50 (NUAK2 (h)) [µM] | IC50 (NUAK1) [µM] | IC50 (Aurora A) [µM] | Structure (SMILES) |
| --- | --- | --- | --- |
| 0.0001 to 0.01 | 0.0001 to 0.01 | 0.0001 to 0.01 | CN1CCc2ccc(Nc3ncc(Cl)c(Nc4cccc5c4C(=O)NC5)n3)cc2C1 [Compound I-10, 7-((5-chloro-2-((2-methyl-1,2,3,4-tetrahydroisoquinolin-7-yl)amino)pyrimidin-4-yl)amino)isoindolin-1-one] |
| 0.011 to 0.1 | 0.0001 to 0.01 | 0.011 to 0.1 | COc1nc(N2CCN(C)CC2)ccc1Nc1ncc(Cl)c(Nc2cccc3c2C(=O)NC3)n1 [Compound I-14, 7-((5-chloro-2-((2-methoxy-6-(4-methylpiperazin-1-yl)pyridin-3-yl)amino)pyrimidin-4-yl)amino)isoindolin-1-one] |
| 0.011 to 0.1 | 0.011 to 0.1 | > 1 | COc1cc2c(cc1Nc1ncc(Cl)c(Nc3cccc4c3C(=O)NC4)n1)CN(C)CC2(C)C [Compound I-16, 7-((5-chloro-2-((6-methoxy-2,4,4-trimethyl-1,2,3,4-tetrahydroisoquinolin-7-yl)amino)pyrimidin-4-yl)amino)isoindolin-1-one] |
| 0.011 to 0.1 | 0.011 to 0.1 | > 1 | COc1cc2c(cc1Nc1ncc(Cl)c(Nc3cccc4c3C(=O)NC4)n1)CCNC2 [Compound I-17, 7-((5-chloro-2-((7-methoxy-1,2,3,4-tetrahydroisoquinolin-6-yl)amino)pyrimidin-4-yl)amino)isoindolin-1-one] |
| 0.0001 to 0.01 | 0.011 to 0.1 | > 1 | COc1cc2c(cc1Nc1ncc(Cl)c(Nc3cccc4c3C(=O)NC4)n1)CCN(C(C)C)C2 [Compound I-18, 7-((5-chloro-2-((2-isopropyl-7-methoxy-1,2,3,4-tetrahydroisoquinolin-6-yl)amino)pyrimidin-4-yl)amino)isoindolin-1-one] |
| 0.0001 to 0.01 | 0.011 to 0.1 | 0.101 to 1 | CN1CCN(C2CCN(c3ccc(Nc4ncc(C(F)(F)F)c(Nc5cccc6c5C(=O)NC6)n4)c(OC(F)F)c3)CC2)CC1 [Compound I-20, 7-((2-((2-(difluoromethoxy)-4-(4-(4-methylpiperazin-1-yl)piperidin-1-yl)phenyl)amino)-5-(trifluoromethyl)pyrimidin-4-yl)amino)isoindolin-1-one] |
| 0.011 to 0.1 | 0.011 to 0.1 | 0.101 to 1 | COc1cc2c(cc1Nc1ncc(C(F)(F)F)c(Nc3cccc4c3C(=O)NC4)n1)CN(C)CC2 [Compound I-21, 7-((2-((6-methoxy-2-methyl-1,2,3,4-tetrahydroisoquinolin-7-yl)amino)-5-(trifluoromethyl)pyrimidin-4-yl)amino)isoindolin-1-one] |
| 0.011 to 0.1 | 0.011 to 0.1 | 0.101 to 1 | COc1cc2c(cc1Nc1ncc(Cl)c(Nc3cccc4c3C(=O)NC4)n1)CNCC2 [Compound I-23, 7-((5-chloro-2-((6-methoxy-1,2,3,4-tetrahydroisoquinolin-7-yl)amino)pyrimidin-4-yl)amino)isoindolin-1-one] |
| 0.011 to 0.1 | 0.011 to 0.1 | > 1 | COc1cc2c(cc1Nc1ncc(Cl)c(Nc3cccc4c3C(=O)NC4)n1)CNCC21CC1 [Compound I-25, 7-((5-chloro-2-((6′-methoxy-2′,3′-dihydro-1′H-spiro[cyclopropane-1,4′-isoquinolin]-7′-yl)amino)pyrimidin-4-yl)amino)isoindolin-1-one] |
